For the series, the system named is SD-strain rats. The series can be described thus: Single dose toxicity test. Type of series: in vivo. The conditions noted are these: intravenous single dose 75 to 600 mg/kg, even at 600 mg/kg, 5 males and 5 females. The procedure:
5-Methyloxaluric acid was intravenously administered to SD-strain rats (6 weeks age, 5 males and 5 females) at the dose of 75 to 600 mg/kg.

Each structure is given as a SMILES string.

In the case of `CNC(=O)NC(=O)C(=O)O` [5-Methyloxaluric acid, 5-methyloxaluric acid], the death entry is “no death”.

The record behind these values is US20050245577A1, “Drug for kidney failure containing oxaluric acid derivative” (priority 2002, published 2005).
